PMC4850295, “Using a Genetically Encoded Sensor to Identify Inhibitors of Toxoplasma gondii Ca^2+ Signaling” (The Journal of Biological Chemistry, 2016)
Where “and” joins values, the source holds several entries; their conditions need not be identical. Equal values may be shown once. Read-outs that look alike come from different tables or passages of the source.

System: T1, GCaMP5-expressing T. gondii
T1 construct: whole extracellular parasites expressing GCaMP5 Ca2+ sensor
Parameters: species or system GCaMP5-expressing Toxoplasma gondii, extracellular; GCaMP5 fluorescence (cytosolic Ca2+) after 100 uM zaprinast in compound-pretreated extracellular parasites, background-subtracted, relative to zaprinast alone
Settings: 0.23 h; for fold change in fluorescence relative to zaprinast alone: 100 uM zaprinast stimulation, 10 min pretreatment, mean of two replicates
In short: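 Read-out is GCaMP5 calcium fluorescence (ex 485/em 525 nm) taken 4 min after 100 μM zaprinast at 37 °C, following 10 min compound pretreatment at 10 μM in duplicate biological replicates. Values are basal-subtracted fold change versus zaprinast-only controls; parasites held extracellular in Ringer's solution.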

| SMILES | fold change in fluorescence relative to zaprinast alone | other results |
| --- | --- | --- |
| NC(=O)c1ccc2c(-c3ccnc(NCCCO)n3)c(-c3ccc(F)cc3)nn2c1 [GW581744X] | 0.8342 | – |
| Cc1ccc(Nc2ccnc(Nc3ccc(C)c(F)c3)n2)cc1O [GW582868A] | 1.057 | – |
| [O-][S+]1CCN(Cc2ccc(-c3ccc4ncnc(Nc5ccc(OCc6ccccc6)c(Cl)c5)c4c3)o2)CC1 [GW583373A] | 0.2727 | – |
| NS(=O)(=O)c1ccc(NC=C2C(=O)Nc3ccc4ncsc4c32)cc1 [GW589933X] | 1.196 | – |
| COC(=O)Nc1nc2ccc(Oc3ccc(NC(=O)Nc4cccc(Cl)c4)cc3)cc2[nH]1 [GW589961A] | 1.185 | – |
| CCS(=O)(=O)c1ccc(OC)c(Nc2ncc(-c3ccc(F)cc3)o2)c1 [GW591947A] | 1.203 | – |
| COc1ccc(NC(=O)c2ccc(-c3cc(-c4nnc(C)o4)ccc3C)cc2)cc1 [GW595885X] | 1.221 | – |
| FC(F)(F)c1ccc(-c2cc(-c3cn[nH]c3-c3ccccn3)ccn2)cc1 [GW599550X] | 1.459 | – |
| Cc1nnc(-c2ccc(C)c(-c3ccc(C(=O)Nc4cccc(C#N)c4)cc3)c2)o1 [GW607117X] | 1.107 | – |
| Cc1nnc(-c2ccc(C)c(-c3ccc(C(=O)O)cc3)c2)o1 [GW608005X] | 1.249 | – |
| COc1cc(Nc2nccc(Nc3ccc4c(C)n[nH]c4c3)n2)cc(OC)c1OC [GW612286X] | 0.875 | – |
| O=S(=O)(CCOCc1ccc(-c2ccc3ncnc(Nc4ccc(OCc5cccc(F)c5)c(Cl)c4)c3c2)o1)c1ccccc1 [GW615311X] | 1.258 | – |
| CS(=O)(=O)CCN(CC#N)Cc1ccc(-c2ccc3ncnc(Nc4ccc(OCc5cccc(F)c5)c(Cl)c4)c3c2)o1 [GW616030X] | 1.169 | – |
| CCS(=O)(=O)c1ccc(OC)c(Nc2ncc(-c3cccc(C(C)=O)c3)o2)c1 [GW621431X] | 1.216 | – |
| CN1CCN(CCCNc2nccc(-c3c(-c4ccc(F)cc4)nn4cc(C(F)(F)F)ccc34)n2)CC1 [GW621581X] | 0.8628 | – |
| CCCN(CCS(C)(=O)=O)Cc1ccc(-c2ccc3ncnc(Nc4ccc(OCc5cccc(F)c5)c(Cl)c4)c3c2)o1 [GW621823A] | 0.6108 | – |
| CN1CCN(CCCNc2nccc(-c3c(-c4ccc(F)cc4)nn4cc(C(N)=O)ccc34)n2)CC1 [GW622475X] | 0.5684 | – |
| COc1cc(Nc2ncc(-c3ccccc3)o2)cc(OC)c1OC [GW627512B] | 0.9208 | – |
| OCCCNc1nccc(-c2c(-c3cccc(C(F)(F)F)c3)nn3cc(C(F)(F)F)ccc23)n1 [GW630813X] | 1.109 | – |
| Cc1cccc(Nc2ncc(-c3ccccc3)o2)c1 [GW632046X] | 1.202 | – |
| COc1ccc(COc2ccc(Cc3cnc(N)nc3N)cc2OC)cc1 [GW632580X] | 1.155 | – |

| SMILES | fold change in fluorescence relative to zaprinast alone | other results |
| --- | --- | --- |
| O=S(=O)(CCNCc1ccc(-c2ccc3ncnc(Nc4ccc(OCc5cccc(F)c5)c(Cl)c4)c3c2)o1)c1ccccc1 [GW633459A] | 1.016 | – |
| CC(C)S(=O)(=O)N1CCN(Cc2ccc3c(c2)nc(NC(=O)c2ccsc2)n3C[C@H](O)c2ccccc2)CC1 [GW635815X] | 1.196 | – |
| N#CCc1ccc(Nc2nccc(Nc3ccc(Oc4ccccc4)cc3)n2)cc1 [GW639905A] | 1.192 | – |
| COc1ccc(-c2cc3c(N)ncnc3o2)cc1 [GW642138X] | 1.142 | – |
| COc1cc(C=NNc2ncnc3c2cnn3Cc2ccccc2)ccc1O [GW643971X] | 1.09 | – |
| COc1cc(/C=N/Nc2ncnc3c2cnn3C(C)C)ccc1O [GW644007X] | – | % of control remaining (10 µM): 1.177 |
| Fc1cccc(COc2ccc(Nc3ncncc3C#Cc3ccccc3)cc2Cl)c1 [GW651576X] | 1.149 | – |
| COC(=O)Nc1nc2ccc(Oc3ccc(NC(=O)Nc4cc(C(F)(F)F)ccc4F)cc3)cc2[nH]1 [GW654607A] | 1.325 | – |
| NC(=O)c1cccc(Nc2nccc(Nc3ccc(Oc4c(Cl)cccc4Cl)c(Cl)c3)n2)c1 [GW659009A] | 1.248 | – |
| COC(=O)Nc1nc2cc(Oc3cccc(NC(=O)Nc4cc(C(F)(F)F)ccc4F)c3)ccc2[nH]1 [GW659386A] | – | fold change in fluorescence relative to zaprinast alone (10 µM): 1.116 and 1.187 |
| Nc1ccc(C#Cc2cncnc2Nc2ccc(OCc3cccc(F)c3)c(Cl)c2)cc1 [GW659893X] | 0.972 | – |
| O=C(NCCCN1CCOCC1)c1cccc(Nc2nccc(Nc3ccc(Oc4ccccc4)cc3)n2)c1 [GW663929X] | 1.429 | – |
| N#Cc1cnc2cc(-c3cnc(CNCCN4CCOCC4)s3)ccc2c1Nc1ccc(Oc2ccccc2)cc1 [GW664114X] | 1.528 | – |
| CCc1cccc(NC(=O)Nc2ccc(Oc3ccc4nc(NC(=O)OC)[nH]c4c3)cc2)c1 [GW673715X] | 1.098 | – |
| CCS(=O)(=O)c1ccc(OC)c(Nc2ncc(-c3cccc(-c4ccccc4F)c3)o2)c1 [GW678313X] | 1.071 | – |
| Cc1cccc(-c2cc(-c3cn[nH]c3-c3ccccn3)ccn2)c1 [GW679395X] | 0.9312 | – |
| FC(F)(F)c1ccccc1-c1cc(-c2cn[nH]c2-c2ccccn2)ccn1 [GW679396X] | 0.8259 | – |
| Cc1ccccc1-c1cc(-c2cn[nH]c2-c2ccccn2)ccn1 [GW680061X] | 0.8106 | – |
| C#Cc1cccc(Nc2ncnc3ccc(OCCCCNCCS(C)(=O)=O)cc23)c1 [GW680191X] | 1.038 | – |
| COc1cccc(-c2cc(-c3cn[nH]c3-c3ccccn3)ccn2)c1 [GW680338X] | 0.8974 | – |
| COC(=O)Nc1nc2ccc(Oc3ccc(CC(=O)Nc4cc(C(F)(F)F)ccc4F)cc3)cc2[nH]1 [GW680903X] | 1.756 | – |

| SMILES | fold change in fluorescence relative to zaprinast alone | other results |
| --- | --- | --- |
| COC(=O)Nc1nc2ccc(S(=O)(=O)c3ccc(NC(=O)Nc4cc(C(F)(F)F)ccc4F)cc3)cc2[nH]1 [GW680908A] | 1.018 | – |
| Fc1ccc(-c2cc(-c3c[nH]nc3-c3ccccn3)ccn2)cc1 [GW680975X] | 1.061 | – |
| COC(=O)Nc1nc2ccc(Oc3ccc(NC(=O)Nc4cc(C(F)(F)F)ccc4F)cn3)cc2[nH]1 [GW681170A] | 1.637 | – |
| Clc1ccc(-c2cc(-c3cn[nH]c3-c3ccccn3)ccn2)cc1 [GW681251X] | 1.448 | – |
| Cc1[nH]nc2cc(Nc3ccnc(Nc4cccc(CN5CCOCC5)c4)n3)ccc12 [GW682569X] | 1.452 | – |
| CC(C)c1ccc(-c2cc(-c3c[nH]nc3-c3ccccn3)ccn2)cc1 [GW682841X] | 1.973 | – |
| O=C(Nc1ccc(Oc2ccc3[nH]c(NC(=O)c4ccco4)nc3c2)cc1)Nc1cc(C(F)(F)F)ccc1F [GW683134A] | 1.019 | – |
| Nc1nc(-c2cccnc2)c(-c2ccnc3ccccc23)s1 [GW684083X] | 0.9409 | – |
| CCCCc1nn2ncccc2c1-c1ccnc(NC2CC2)n1 [GW684374X] | 0.8894 | – |
| Fc1cccc(COc2ccc(Nc3ncnc4sc(-c5cccs5)cc34)cc2Cl)c1 [GW684626B] | 0.9792 | – |
| CCCCc1nn2ncccc2c1-c1ccnc(Nc2ccc(N3CCN(C)CC3)cc2)n1 [GW684941X] | 0.4893 | – |
| COC(=O)Nc1nc2ccc(Oc3ccc(NC(=O)Nc4cc(C(F)(F)F)ccc4F)cc3)cc2n1C [GW692089A] | 1.505 | – |
| N#Cc1ccc(-c2cc(-c3cn[nH]c3-c3ccccn3)ccn2)cc1 [GW693028X] | 1.123 | – |
| Nc1nc(-c2ccccn2)c(-c2ccc3ncccc3n2)s1 [GW693481X] | 1.166 | – |
| Nc1nc(-c2nccs2)c(-c2ccnc3ccccc23)s1 [GW693542X] | 0.8815 | – |
| c1ccc(-c2[nH]ncc2Nc2ccnc3ccccc23)nc1 [GW694077X] | 1.237 | – |
| COC(=O)Nc1nc2cc(Oc3ccc(NC(=O)Nc4cccc(Br)c4)cc3)ccc2[nH]1 [GW694234A] | 0.8976 | – |
| COC(=O)Nc1nc2cc(Oc3ccc(NC(=O)Nc4ccccc4)cc3)ccc2[nH]1 [GW694590A] | 1.127 | – |
| c1ccc(-c2n[nH]cc2-c2ccnc(-c3ccc(OCCN4CCOCC4)cc3)c2)nc1 [GW695874X] | 1.104 | – |
